Values after ≈ are worked out from the molar mass of the structure shown.
Columns and labels:
[1] = tested on: Enterobacter sp.; experiment: Antibacterial activity against Enterobacter spp. clinical isolate after 18 to 22 hrs by broth microdilution method; format: functional
[2] = tested on: [Candida] sake; experiment: Antifungal activity against Candida sake clinical isolate after 24 hrs by broth microdilution method; format: functional; details: Fermentozyma sake
[3] = tested on: Staphylococcus warneri; experiment: Antibacterial activity against Staphylococcus warneri clinical isolate after 18 to 22 hrs by broth microdilution method; format: functional
[4] = tested on: Staphylococcus aureus; experiment: Antibacterial activity against Staphylococcus aureus clinical isolate after 18 to 22 hrs by broth microdilution method; format: functional
[5] = tested on: Pichia kudriavzevii; experiment: Antifungal activity against Candida krusei clinical isolate after 24 hrs by broth microdilution method; format: functional
[6] = tested on: Proteus mirabilis; experiment: Antibacterial activity against Proteus mirabilis clinical isolate after 18 to 22 hrs by broth microdilution method; format: functional
[7] = tested on: Candida albicans; experiment: Antifungal activity against Candida albicans clinical isolate after 24 hrs by broth microdilution method; format: functional
[8] = tested on: Candida tropicalis; experiment: Antifungal activity against Candida tropicalis clinical isolate after 24 hrs by broth microdilution method; format: functional
[9] = tested on: Escherichia coli; experiment: Antibacterial activity against Escherichia coli after clinical isolate 18 to 22 hrs by broth microdilution method; format: functional
[10] = tested on: Nakaseomyces glabratus; experiment: Antifungal activity against Candida glabrata clinical isolate after 24 hrs by broth microdilution method; format: functional
[11] = tested on: Klebsiella oxytoca; experiment: Antibacterial activity against Klebsiella oxytoca clinical isolate after 18 to 22 hrs by broth microdilution method; format: functional
[12] = tested on: Streptococcus sp. (viridans group); experiment: Antibacterial activity against Streptococcus alpha-hemolyticus clinical isolate after 18 to 22 hrs by broth microdilution method
[13] = tested on: Enterococcus faecalis; experiment: Antibacterial activity against Streptococcus faecalis clinical isolate after 18 to 22 hrs by broth microdilution method; format: functional
[14] = tested on: Candida parapsilosis; experiment: Antifungal activity against Candida parapsilosis clinical isolate after 24 hrs by broth microdilution method; format: functional; details: Lodderomyces parapsilosis

Row | SMILES | MIC [1] [µg/mL] | MIC [2] [µg/mL] | MIC [3] [µg/mL] | MIC [4] [µg/mL] | MIC [5] [µg/mL] | MIC [6] [µg/mL] | MIC [7] [µg/mL] | MIC [8] [µg/mL] | MIC [9] [µg/mL] | MIC [10] [µg/mL] | MIC [11] [µg/mL] | MIC [12] [µg/mL] | MIC [13] [µg/mL] | MIC [14] [µg/mL]
1 | CC(C)=N/N=C1\SCC(=O)N1Cc1ccccc1F | > 256 | 8 (≈ 28.6 µM) | > 256 | > 256 | 8 (≈ 28.6 µM) | > 256 | 8 (≈ 28.6 µM) | 4 (≈ 14.3 µM) | > 256 | 2 (≈ 7.16 µM) | > 256 | > 256 | > 256 | 4 (≈ 14.3 µM)
2 | C/C(=N\N=C1/SCC(=O)N1Cc1ccccc1F)c1ccccn1 | > 256 | 8 (≈ 23.4 µM) | > 256 | > 256 | 4 (≈ 11.7 µM) | > 256 | 4 (≈ 11.7 µM) | 4 (≈ 11.7 µM) | > 256 | 8 (≈ 23.4 µM) | > 256 | > 256 | > 256 | 4 (≈ 11.7 µM)
3 | CC(C)=N/N=C1\SCC(=O)N1Cc1ccc(Cl)cc1 | > 256 | 4 (≈ 13.5 µM) | > 256 | > 256 | 8 (≈ 27 µM) | > 256 | 4 (≈ 13.5 µM) | 8 (≈ 27 µM) | > 256 | 2 (≈ 6.76 µM) | > 256 | > 256 | > 256 | 2 (≈ 6.76 µM)
4 | C/C(=N\N=C1/SCC(=O)N1Cc1cccc(F)c1)c1ccccn1 | > 256 | 4 (≈ 11.7 µM) | > 256 | > 256 | 8 (≈ 23.4 µM) | > 256 | 2 (≈ 5.84 µM) | 8 (≈ 23.4 µM) | > 256 | 2 (≈ 5.84 µM) | > 256 | > 256 | > 256 | 2 (≈ 5.84 µM)
5 | C/C(=N\N=C1/SCC(=O)N1Cc1ccccc1Cl)c1cccs1 | > 256 | 8 (≈ 22 µM) | > 256 | > 256 | 8 (≈ 22 µM) | > 256 | 4 (≈ 11 µM) | 2 (≈ 5.5 µM) | > 256 | 4 (≈ 11 µM) | > 256 | > 256 | > 256 | 8 (≈ 22 µM)
6 | CC(C)=N/N=C1\SCC(=O)N1Cc1ccccc1Cl | > 256 | 2 (≈ 6.76 µM) | > 256 | > 256 | 8 (≈ 27 µM) | > 256 | 2 (≈ 6.76 µM) | 16 (≈ 54.1 µM) | > 256 | 2 (≈ 6.76 µM) | > 256 | > 256 | > 256 | 8 (≈ 27 µM)
7 | CC(C)=N/N=C1\SCC(=O)N1Cc1cccc(F)c1 | > 256 | 8 (≈ 28.6 µM) | > 256 | > 256 | 4 (≈ 14.3 µM) | > 256 | 4 (≈ 14.3 µM) | 4 (≈ 14.3 µM) | > 256 | 4 (≈ 14.3 µM) | > 256 | > 256 | > 256 | 2 (≈ 7.16 µM)
8 | O=C1CS/C(=N\N=C2CCCC2)N1Cc1cccc(F)c1 | > 256 | 8 (≈ 26.2 µM) | > 256 | > 256 | 2 (≈ 6.55 µM) | > 256 | 4 (≈ 13.1 µM) | 16 (≈ 52.4 µM) | > 256 | 2 (≈ 6.55 µM) | > 256 | > 256 | > 256 | 4 (≈ 13.1 µM)
9 | CC(C)=N/N=C1\SCC(=O)N1Cc1ccc(F)cc1 | > 256 | 8 (≈ 28.6 µM) | > 256 | > 256 | 16 (≈ 57.3 µM) | > 256 | 8 (≈ 28.6 µM) | 16 (≈ 57.3 µM) | > 256 | 4 (≈ 14.3 µM) | > 256 | > 256 | > 256 | 2 (≈ 7.16 µM)
10 | O=C1CS/C(=N\N=C2CCCC2)N1Cc1cccc([N+](=O)[O-])c1 | > 256 | 2 (≈ 6.02 µM) | > 256 | > 256 | 8 (≈ 24.1 µM) | > 256 | 4 (≈ 12 µM) | 4 (≈ 12 µM) | > 256 | 16 (≈ 48.1 µM) | > 256 | > 256 | > 256 | 4 (≈ 12 µM)
11 | C/C(=N\N=C1/SCC(=O)N1Cc1cccc([N+](=O)[O-])c1)c1ccccn1 | > 256 | 4 (≈ 10.8 µM) | > 256 | > 256 | 8 (≈ 21.7 µM) | > 256 | 4 (≈ 10.8 µM) | 8 (≈ 21.7 µM) | > 256 | 2 (≈ 5.41 µM) | > 256 | > 256 | > 256 | 8 (≈ 21.7 µM)
12 | O=C1CS/C(=N\N=C2CCCC2)N1Cc1ccc(F)cc1 | > 256 | 8 (≈ 26.2 µM) | > 256 | > 256 | 8 (≈ 26.2 µM) | > 256 | 8 (≈ 26.2 µM) | 16 (≈ 52.4 µM) | > 256 | 4 (≈ 13.1 µM) | > 256 | > 256 | > 256 | 2 (≈ 6.55 µM)
13 | CC(C)=N/N=C1\SCC(=O)N1Cc1cccc(Cl)c1 | > 256 | 4 (≈ 13.5 µM) | > 256 | > 256 | 2 (≈ 6.76 µM) | > 256 | 8 (≈ 27 µM) | 2 (≈ 6.76 µM) | > 256 | 4 (≈ 13.5 µM) | > 256 | > 256 | > 256 | 4 (≈ 13.5 µM)
14 | O=C1CS/C(=N\N=C2CCCC2)N1Cc1ccccc1Cl | > 256 | 2 (≈ 6.21 µM) | > 256 | > 256 | 8 (≈ 24.9 µM) | > 256 | 2 (≈ 6.21 µM) | 4 (≈ 12.4 µM) | > 256 | 4 (≈ 12.4 µM) | > 256 | > 256 | > 256 | 8 (≈ 24.9 µM)
15 | O=C1CS/C(=N\N=C2CCCC2)N1Cc1cccc(Cl)c1 | > 256 | 2 (≈ 6.21 µM) | > 256 | > 256 | 16 (≈ 49.7 µM) | > 256 | 4 (≈ 12.4 µM) | 8 (≈ 24.9 µM) | > 256 | 4 (≈ 12.4 µM) | > 256 | > 256 | > 256 | 4 (≈ 12.4 µM)
16 | C/C(=N\N=C1/SCC(=O)N1Cc1cccc([N+](=O)[O-])c1)c1cccs1 | > 256 | 4 (≈ 10.7 µM) | > 256 | > 256 | 2 (≈ 5.34 µM) | > 256 | 4 (≈ 10.7 µM) | 4 (≈ 10.7 µM) | > 256 | 2 (≈ 5.34 µM) | > 256 | > 256 | > 256 | 8 (≈ 21.4 µM)
17 | C/C(=N/N=C1\SCC(=O)N1Cc1ccccc1[N+](=O)[O-])c1ccccn1 | > 256 | 2 (≈ 5.41 µM) | > 256 | > 256 | 4 (≈ 10.8 µM) | > 256 | 2 (≈ 5.41 µM) | 4 (≈ 10.8 µM) | > 256 | 2 (≈ 5.41 µM) | > 256 | > 256 | > 256 | 16 (≈ 43.3 µM)
18 | C/C(=N\N=C1/SCC(=O)N1Cc1ccccc1Cl)c1ccccn1 | > 256 | 4 (≈ 11.1 µM) | > 256 | > 256 | 4 (≈ 11.1 µM) | > 256 | 4 (≈ 11.1 µM) | 2 (≈ 5.57 µM) | > 256 | 4 (≈ 11.1 µM) | > 256 | > 256 | > 256 | 8 (≈ 22.3 µM)
19 | O=C1CS/C(=N\N=C2CCCC2)N1Cc1ccccc1[N+](=O)[O-] | > 256 | 4 (≈ 12 µM) | > 256 | > 256 | 4 (≈ 12 µM) | > 256 | 4 (≈ 12 µM) | 8 (≈ 24.1 µM) | > 256 | 2 (≈ 6.02 µM) | > 256 | > 256 | > 256 | 16 (≈ 48.1 µM)
20 | C[C@@H]1[C@H](O)[C@@H](C)/C=C/C=C/C=C/C=C/C=C/C=C/C=C/[C@H](O[C@@H]2O[C@H](C)[C@@H](O)[C@H](N)[C@@H]2O)C[C@@H]2O[C@](O)(C[C@@H](O)C[C@@H](O)[C@H](O)CC[C@@H](O)C[C@@H](O)CC(=O)O[C@H]1C)C[C@H](O)[C@H]2C(=O)O [AMPHOTERICIN B] | – | 2 (≈ 2.16 µM) | – | – | 4 (≈ 4.33 µM) | – | 4 (≈ 4.33 µM) | 2 (≈ 2.16 µM) | – | 4 (≈ 4.33 µM) | – | – | – | 2 (≈ 2.16 µM)
21 | CC(C)(O/N=C(\C(=O)N[C@@H]1C(=O)N2C(C(=O)[O-])=C(C[n+]3ccccc3)CS[C@H]12)c1csc(N)n1)C(=O)O [CEFTAZIDIME] | 8 (≈ 14.6 µM) | – | 4 (≈ 7.32 µM) | 2 (≈ 3.66 µM) | – | 8 (≈ 14.6 µM) | – | – | 4 (≈ 7.32 µM) | – | 8 (≈ 14.6 µM) | 4 (≈ 7.32 µM) | 4 (≈ 7.32 µM) | –
22 | OC(Cn1cncn1)(Cn1cncn1)c1ccc(F)cc1F [FLUCONAZOLE] | – | 2 (≈ 6.53 µM) | – | – | 2 (≈ 6.53 µM) | – | 2 (≈ 6.53 µM) | 2 (≈ 6.53 µM) | – | 2 (≈ 6.53 µM) | – | – | – | 2 (≈ 6.53 µM)
23 | CC(=O)N1CCN(c2ccc(OCC3COC(Cn4ccnc4)(c4ccc(Cl)cc4Cl)O3)cc2)CC1 (centres undefined) [KETOCONAZOLE] | – | 4 (≈ 7.53 µM) | – | – | 4 (≈ 7.53 µM) | – | 2 (≈ 3.76 µM) | 2 (≈ 3.76 µM) | – | 2 (≈ 3.76 µM) | – | – | – | 2 (≈ 3.76 µM)
24 | Clc1ccc(COC(Cn2ccnc2)c2ccc(Cl)cc2Cl)c(Cl)c1 (centres undefined) [MICONAZOLE] | – | 2 (≈ 4.81 µM) | – | – | 4 (≈ 9.61 µM) | – | 2 (≈ 4.81 µM) | 2 (≈ 4.81 µM) | – | 4 (≈ 9.61 µM) | – | – | – | 4 (≈ 9.61 µM)
25 | Clc1ccc(C(Cn2ccnc2)OCc2ccsc2Cl)c(Cl)c1 (centres undefined) [TIOCONAZOLE] | – | 4 (≈ 10.3 µM) | – | – | 8 (≈ 20.6 µM) | – | 8 (≈ 20.6 µM) | 8 (≈ 20.6 µM) | – | 4 (≈ 10.3 µM) | – | – | – | 8 (≈ 20.6 µM)

Reference: ChEMBL document CHEMBL3804786, “Novel 1,3-thiazolidin-4-one derivatives as promising anti-Candida agents endowed with anti-oxidant and chelating properties” (Eur J Med Chem, 2016)
